Laboratory results as given in article PMC3597730, “Novel Phenolic Inhibitors of Small/Intermediate-Conductance Ca^2+-Activated K^+ Channels, KCa3.1 and KCa2.3” (PLoS ONE, 2013).
“And” between values parts separate entries of the source, which are not always exact repeats. Equal entries are not always repeated. “Also recorded” adds a separate entry of the source. Where two headings read alike, the source gives them in different places.

Legend:
[1] = target: T1, KCa3.1 channels in 3T3 fibroblasts (Mus musculus, UniProt O89109); test: Whole-cell patch-clamp of KCa3.1 currents in 3T3 fibroblasts; format: cell-based; conditions: for remaining activity at 10 µM: read-out: % of control at 10 µM; for remaining activity at 50 µM: compound 50 µM, read-out: % of control at 50 µM; for KCa3.1 blocking effect (in words) / EC50: whole-cell; for KCa3.1 blocking effect (in words): concentrations up to 50 µM as in Table 1; for remaining activity at 1 µM: read-out: % of control at 1 µM
T1 construct: KCa3.1 channels in 3T3 fibroblasts; endogenous in cells; host or cells: 3T3-L1 mouse embryonic fibroblasts

[2] = test system: mixed KCa3.1 and KCa2.3 currents in PCAEC; test: Whole-cell patch-clamp of KCa currents in porcine coronary artery endothelial cells; format: cell-based; conditions: whole-cell, compound 1 µM
[3] = target: T2, cloned human KCa3.1 channel (Homo sapiens, UniProt O15554); test: Inside-out patch recordings from hKCa3.1-overexpressing HEK293 cells; format: biochemical; conditions: inside-out patches; compound 1 µM
T2 construct: expressed in transfected cells; gift of Khaled Houamed, University of Chicago

hKCa2.3 = target: T3, hKCa2.3 (Homo sapiens, UniProt Q9UGI6); test: Whole-cell patch-clamp of hKCa2.3 in COS7 cells; format: cell-based; conditions: for remaining activity at 1 µM: COS-7, hKCa2.3, compound 1 µM, mean ± SEM, n ≥ 3, read-out: % of control at 1 µM; for KCa2.3 blocking effect (in words): micromolar concentrations
T3 construct: expressed in transfected cells; host or cells: COS7
T3 sequence (Q9UGI6 whole entry): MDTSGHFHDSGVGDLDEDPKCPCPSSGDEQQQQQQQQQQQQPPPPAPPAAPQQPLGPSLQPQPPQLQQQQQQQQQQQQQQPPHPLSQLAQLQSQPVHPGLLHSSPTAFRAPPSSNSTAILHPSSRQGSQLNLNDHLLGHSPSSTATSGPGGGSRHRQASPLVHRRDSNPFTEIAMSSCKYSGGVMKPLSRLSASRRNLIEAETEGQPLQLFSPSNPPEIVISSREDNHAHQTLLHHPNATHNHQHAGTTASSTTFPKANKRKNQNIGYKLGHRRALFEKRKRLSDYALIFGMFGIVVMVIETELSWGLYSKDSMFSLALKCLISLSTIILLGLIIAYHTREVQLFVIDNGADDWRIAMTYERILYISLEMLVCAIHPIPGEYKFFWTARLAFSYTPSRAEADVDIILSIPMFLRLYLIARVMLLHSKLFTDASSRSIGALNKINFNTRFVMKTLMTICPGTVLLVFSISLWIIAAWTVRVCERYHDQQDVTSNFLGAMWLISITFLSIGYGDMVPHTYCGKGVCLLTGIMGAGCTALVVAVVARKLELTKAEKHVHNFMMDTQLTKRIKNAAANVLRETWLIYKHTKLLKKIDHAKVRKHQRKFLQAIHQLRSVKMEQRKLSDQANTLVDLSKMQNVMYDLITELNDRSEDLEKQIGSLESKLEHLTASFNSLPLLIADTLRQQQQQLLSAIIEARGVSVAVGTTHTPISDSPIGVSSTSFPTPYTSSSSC

hKv1.2 = target: T4, hKv1.2 (Homo sapiens, UniProt P16389); test: Whole-cell patch-clamp of cloned hKv1.2; format: cell-based; conditions: for remaining activity at 1 µM: hKv1.2, compound 1 µM, read-out: % of control at 1 µM
T4 construct: expressed in transfected cells; host or cells: B82 murine fibroblasts (Methods)
T4 sequence (P16389 whole entry): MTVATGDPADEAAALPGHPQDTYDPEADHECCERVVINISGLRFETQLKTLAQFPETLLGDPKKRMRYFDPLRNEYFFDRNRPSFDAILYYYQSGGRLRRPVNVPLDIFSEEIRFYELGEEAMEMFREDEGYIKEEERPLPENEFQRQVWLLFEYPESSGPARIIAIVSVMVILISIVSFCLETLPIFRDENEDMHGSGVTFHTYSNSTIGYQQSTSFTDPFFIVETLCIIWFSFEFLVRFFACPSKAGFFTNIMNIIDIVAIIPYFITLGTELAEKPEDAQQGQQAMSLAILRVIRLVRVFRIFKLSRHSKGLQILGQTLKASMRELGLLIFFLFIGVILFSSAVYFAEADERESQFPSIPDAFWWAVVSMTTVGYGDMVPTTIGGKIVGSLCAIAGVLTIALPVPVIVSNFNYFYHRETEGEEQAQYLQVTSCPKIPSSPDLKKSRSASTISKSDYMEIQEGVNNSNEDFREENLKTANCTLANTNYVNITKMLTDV

[4] = KCa3.1 whole-cell current, 3T3 fibroblasts, 1 µM free Ca2+ in pipette, compound 10 µM, mean ± SEM, n ≥3
[5] = KCa3.1 whole-cell current, 3T3 fibroblasts, 1 µM free Ca2+ in pipette, mean ± SEM, n ≥3
[6] = KCa3.1 whole-cell current, 3T3 fibroblasts, 1 µM free Ca2+ in pipette, compound 1 µM, mean ± SEM, n ≥3
[7] = 3T3 fibroblasts, read-out: EC50 of KCa3.1 inhibition
[8] = EC50 of KCa3.1 inhibition, 3T3 fibroblasts

With `O=C(O)c1cccnc1Nc1cccc(C(F)(F)F)c1` [Niflumic Acid, reference compound] the remaining activity at 10 µM [1, 4] was 106 ± 7%, the remaining activity at 50 µM [1, 5] was 81 ± 4% and the “KCa3.1 blocking effect (in words)” value ([1]; 3T3 fibroblasts) was “no blocking activity; also recorded: no blocking effects”.

With `Nc1ccc(O)c(C(=O)O)c1` [Mesalamine, 5-amino-2-hydroxybenzoic acid, reference compound] the remaining activity at 1 µM [1, 6] was 72 ± 6%, the remaining activity at 10 µM [1, 4] was 53 ± 7% and the remaining activity at 50 µM [1, 5] was 46 ± 3%. The EC50 [1, 7] was ≥ 10 µM and 26 µM.

For `Clc1ccccc1C(c1ccccc1)(c1ccccc1)n1cccn1` [TRAM-34, 1-[(2-chlorophenyl) (diphenyl)methyl]-1H-pyrazole, reference compound], the remaining activity at 1 µM [1] was 1 ± 1%, the “KCa3.1 blocking effect (in words)” value ([1]; 3T3 fibroblasts) was “completely inhibited” and the “KCa current, % of control” value [2] was 58±4%.

`NC(=O)C[S+]([O-])C(c1ccccc1)c1ccccc1` (stereo not shown) [Modafinil, 2-benzhydrylsulfinylacetamide, reference compound] was tested, and the EC50 [1, 8] was greater than 1 µM and the remaining activity at 10 µM [1] was 33 ± 6%.

For `CC(=O)Oc1ccccc1C(=O)O` [2-acetyloxybenzoic acid, reference compound], the remaining activity at 10 µM [1, 4] was 108 ± 5%, the remaining activity at 50 µM [1, 5] was 104 ± 7% and the “KCa3.1 blocking effect (in words)” value ([1]; 3T3 fibroblasts) was “no effect”.

In the case of `O=C(O)c1cc(O)c(O)c(O)c1` [Gallic acid, 3,4,5-trihydroxybenzoic acid], the remaining activity at 10 µM [1, 4] is reported as 101 ± 6% and the “KCa3.1 blocking effect (in words)” value ([1]; 3T3 fibroblasts) is reported as “weak or no blocking effects and no”.

`O=C(OCc1cc(COC(=O)c2ccc(O)c(Cl)c2)cc(COC(=O)c2ccc(O)c(Cl)c2)c1)c1ccc(O)c(Cl)c1` [Compound 13c, [3,5-bis[(3-chloro-4-hydroxy-benzoyl)oxymethyl]phenyl]methyl3-chloro-4-hydroxy-benzoate] was tested, and the remaining activity at 1 µM [1, 6] was 61 ± 17%, the “KCa3.1 blocking effect (in words)” value ([1]; 3T3 fibroblasts) was “weak to moderate blocking efficiency” and the “hKCa3.1 blocking effect (in words)” value [3] was “no or minor blocking effects; also recorded: did not block”. The remaining activity at 1 µM (hKCa2.3) was 92 ± 4%, the “KCa2.3 blocking effect (in words)” value (hKCa2.3) was “no blocking effects” and the “hKv1.2 blocking effect (in words)” value (hKv1.2; flufenamic acid and caffeic acid 10 and 50 µM, 13c 1 µM) was “no effect”. The remaining activity at 1 µM (hKv1.2) was 104 ± 3%.

For `O=C(/C=C/c1ccc(O)c(O)c1)OCCc1ccccc1` [Caffeic acid phenethyl ester, 2-phenylethyl (E)-3-(3,4-dihydroxyphenyl)propenoate], the remaining activity at 10 µM [1, 4] was 94 ± 6% and the “KCa3.1 blocking effect (in words)” value ([1]; 3T3 fibroblasts) was “no”.

`OCCc1ccc(O)c(O)c1` [Hydroxytyrosol] was tested, and the remaining activity at 1 µM [1, 6] was 117 ± 9%, the remaining activity at 10 µM [1, 4] was 108 ± 15% and the “KCa3.1 blocking effect (in words)” value ([1]; 3T3 fibroblasts) was “weak or no blocking effects and no”.

With `Cc1cccc(Nc2ccccc2C(=O)O)c1C` [Mefenamic Acid, 2-((2,3-dimethylphenyl)amino)benzoic acid, reference compound] the remaining activity at 1 µM [1, 6] was 117 ± 4%, the remaining activity at 10 µM [1, 4] was 136 ± 28% and the “KCa3.1 blocking effect (in words)” value ([1]; 3T3 fibroblasts) was “no blocking effects”.

In the case of `COc1cc(/C=C/C(=O)O)ccc1O` [Ferulic Acid, (E)-3-(4-hydroxy-3-methoxyphenyl)propenoic acid], the EC50 [1, 8] is reported as greater than 10 µM, the remaining activity at 10 µM [1, 4] is reported as 87 ± 8% and the remaining activity at 50 µM [1, 5] is reported as 32 ± 4%.

For `Oc1ccc(/C=C/c2cc(O)cc(O)c2)cc1` [Resveratrol, 5-[(E)-2-(4-Hydroxyphenyl)vinyl]benzene-1,3-diol], the EC50 [1, 7] was 10 µM and ~10 µM and 1 to 10 µM.

With `O=C(OC[C@H]1O[C@@H](OC(=O)c2cc(O)c(O)c(O)c2)[C@H](OC(=O)c2cc(O)c(O)c(O)c2)[C@@H](OC(=O)c2cc(O)c(O)c(O)c2)[C@@H]1OC(=O)c1cc(O)c(O)c(O)c1)c1cc(O)c(O)c(O)c1` [1,2,3,4,6-pentagalloyl glucose, [(2S,3R,4S,5R,6R)-2,3,5-tris[(3,4,5-trihydroxybenzoyl)oxy]-6-[(3,4,5-trihydroxybenzoyl)oxymethyl]oxan-4-yl] 3,4,5-trihydroxybenzoate] the remaining activity at 10 µM [1, 4] was 102 ± 6% and the “KCa3.1 blocking effect (in words)” value ([1]; 3T3 fibroblasts) was “no”.

In the case of `COc1cc(C(=O)OCc2cc(COC(=O)c3ccc(O)c(OC)c3)cc(COC(=O)c3ccc(O)c(OC)c3)c2)ccc1O` [Compound 13a, [3,5-bis[(4-hydroxy-3-methoxy-benzoyl)oxymethyl]phenyl]methyl4-hydroxy-3-methoxy-benzoate], the remaining activity at 1 µM [1, 6] is reported as 78 ± 6%, the “hKCa3.1 blocking effect (in words)” value [3] is reported as “no or minor blocking effects; also recorded: did not block” and the remaining activity at 1 µM (hKCa2.3) is reported as 98 ± 1%. The “KCa2.3 blocking effect (in words)” value (hKCa2.3) was “no blocking effects”, the “block of hKv1.2 currents” value (hKv1.2; 1 µM) was 50% and the remaining activity at 1 µM (hKv1.2) was 46 ± 3%.

In the case of `COc1cc(C(=O)O)ccc1O` [Vanillic Acid, 4-hydroxy-3-methoxybenzoic acid], the EC50 [1, 8] is reported as greater than 10 µM, the remaining activity at 10 µM [1, 4] is reported as 78 ± 11% and the remaining activity at 50 µM [1, 5] is reported as 46 ± 12%. For the same compound, the “KCa3.1 blocking effect (in words)” value ([1]; 3T3 fibroblasts) was “weak or no blocking effects; also recorded: Weak inhibition”.

`c1cc2cc(c1)C[n+]1ccc(c3ccccc31)NCc1ccc(cc1)CNc1cc[n+](c3ccccc13)C2` [UCL1684, 6,10-diaza-3(1,3),8(1,4)-dibenzena-1,5(1,4)-diquinolinacyclodecaphane, reference compound] was tested, and the “% of control at 100 nM” value (hKCa2.3; hKCa2.3 current pre-activated by 1 µM SKA-31, n = 4) was 2±1%.

`Cc1ccc(=O)n(-c2ccccc2)c1` [Pirfenidone, methyl-1-phenylpyridin-2(1H)-one, reference compound] was tested, and the remaining activity at 10 µM [1, 4] was 98 ± 5%, the remaining activity at 50 µM [1, 5] was 99 ± 14% and the “KCa3.1 blocking effect (in words)” value ([1]; 3T3 fibroblasts) was “no effects”.
